Data published in patent EP4772510A2, “BENZAZEPINONE COMPOUND AND USE THEREOF” (HANGZHOU BIO-SINCERITY PHARMA-TECHCO., LTD., priority 2023, dated 2025).

How the values were obtained:
U937 cells = assay: Inhibition of TNF-α-induced necroptosis of U937 cells (CCK-8 assay); type: cell-based, human; conditions: Homo sapiens, U-937, TNF-α 20 ng/mL + BV6 2 µM + Z-VAD-FMK 20 µM, 18 h
Source text: Example 56: Inhibition of TNF-α-Induced Necroptosis of U937 Cells by Compounds
• 1. Experimental reagents: RPMI-1640 culture medium, fetal bovine serum, penicillin-streptomycin, TNF-α (MCE, HY-P7058), BV6 (MCE, HY-16701), Z-VAD-FMK (MCE, HY-16658B), and CCK-8 (Dalian Meilun Biotech Co., Ltd., MA0218). • 2. Experimental instruments: medical low-temperature freezer (Thermo Fisher scientific, 902-ULTS), electrically heated thermostatic water bath (Shanghai Bluepard Instruments Co., Ltd., CD-420), low-speed centrifuge (ANHUI USTC Zonkia Scientific Instruments Co., Ltd, SC-3616), carbon dioxide incubator (Shanghai Bluepard Instruments Co., Ltd., BPN-150CH(UV)), inverted microscope (Olympus, CKX53), multi-functional microplate reader (Thermo Tecan, SPARK), class-II biosafety cabinet (AIRTECH, BSC-1304IIA2), and desktop cell counter (Thermo Fisher Scientific, Countess II). • 3. Cell culturing: U937 cells (human histiocytic lymphoma cells) were cultured in an RPMI-1640 culture solution containing 10% fetal bovine serum and 1% penicillin-streptomycin solution in a 5% CO2 incubator at 37 °C and a saturated humidity. The cell culture flask was vertically placed in the incubator. A T25 culture flask was used as an example, the culture solution in the flask was 6-8 mL, and culture medium changes and cell passaging were performed 3-4 times a week. • 4. […] The culture medium was taken out from the freezer and transferred to the water bath for pre-heating. An appropriate amount of culture medium was then taken for use. • (2) The cell suspension was transferred to a 15 mL sterile centrifuge tube and centrifuged at 850 rpm for 4 min to collect U937 cells. • (3) The supernatant was carefully discarded, and an appropriate amount of culture medium was added. The mixture was gently pipetted using a pipette to homogenize the cells and thus prepare a single-cell suspension, and the cells were counted. • (4) The cells were diluted to 4 × 10^5/mL and seeded into a 96-well plate at 90 µL/well, such that the cell density in the 96-well plate was 3.6 × 10 ^4 cells/well. The cells were incubated in a 5% CO 2 incubator at 37 °C and a saturated humidity for 6 h, followed by the addition of compounds. • 4.2 Dilution and addition of compounds: • (1) TNF-α was dissolved in PBS to obtain a 100 µg/mL stock solution and aliquoted; Z-VAD-FMK was dissolved in DMSO to obtain a 10 mM stock solution and aliquoted; BV6 was dissolved in DMSO to obtain a 10 mM stock solution and aliquoted; GSK2982772 was dissolved in DMSO to obtain a 10 mM stock solution and aliquoted. One aliquot of each stock solution was stored at -20 °C for immediate use, while the remaining aliquots were stored at - 80 °C and used within their shelf life. • (2) RPMI-1640 culture medium containing TNF-α, BV6, and Z-VAD-FMK was prepared (5 µL/per well), such that the final concentrations of TNF-α, BV6, and Z-VAD-FMK were 20 ng/mL, 2 µM, and 20 µM, respectively. • (3) Each target compound was three-fold diluted with a culture medium to 8 concentration gradients, with each concentration set in duplicate (5 µL/well). The final concentrations of each target compound were 1000.00/333.33/111.11/37.04/12.35/4.12/1.37/0.46 nM. • (4) The 96-well plate containing 90 µL of cell suspension was taken out from an incubator, and a positive control group, test compound groups, and a DMSO (5‰) control group were set. 5 µL of RPMI-1640 culture solution containing TNF-α, BV6, and Z-VAD-FMK and 5 µL of culture solution containing the test compound were added to the positive control group and the test compound groups. After compound addition, the mixtures were cultured for 18 h, followed by the CCK-8 assay. • (5) The 96-well plate was taken out, and the CCK-8 reagent was carefully added at 10 µL/well. The mixtures were incubated at 37 °C for 2-4 h, and the absorbance value was measured at a wavelength of 450 nm. • 5. Evaluation of inhibitory activity of compounds on TNF-α-induced necroptosis of U937 [formula] […]

HT-29 cells = assay: Inhibition of TNF-α-induced necroptosis of HT-29 cells (SRB method); type: cell-based, human; conditions: Homo sapiens, HT-29, TNF-α 20 ng/mL + BV6 2 µM + Z-VAD-FMK 20 µM, 18 h
Source text: Example 57: Inhibition of TNF-α-Induced Necroptosis of HT-29 Cells by Compounds
• 1. Experimental reagents: McCOY's 5A culture medium, fetal bovine serum, penicillin-streptomycin, trypsin, PBS, TNF-α (MCE, HY-P7058), BV6 (MCE, HY-16701), Z-VAD-FMK (MCE, HY-16658B), SRB kit (Shanghai BestBio Biotechnology Co., Ltd., BB-4208-500T). • 2. Experimental instruments: medical low-temperature freezer (Thermo Fisher scientific, 902-ULTS), electrically heated thermostatic water bath (Shanghai Bluepard Instruments Co., Ltd., CD-420), low-speed centrifuge (ANHUI USTC Zonkia Scientific Instruments Co., Ltd, SC-3616), carbon dioxide incubator (Shanghai Bluepard Instruments Co., Ltd., BPN-150CH(UV)), inverted microscope (Olympus, CKX53), multi-functional microplate reader (Thermo Tecan, SPARK), class-II biosafety cabinet (AIRTECH, BSC-1304IIA2), and desktop cell counter (Thermo Fisher Scientific, Countess II). • 3. Cell culturing: HT-29 cells (human colon cancer cells) were cultured in a McCOY's 5A culture solution containing 10% fetal bovine serum and 1% penicillin-streptomycin solution in a 5% CO 2 at 37 °C and a saturated humidity, and culture medium changes and cell passaging were performed 3-4 times a week. • 4. […] The culture medium, trypsin, etc., were taken out from the freezer and transferred to the water bath for pre-heating. An appropriate amount of these substances was then taken for use. • (2) The old culture medium in the flask was aspirated using a sterile pipette and discarded, and the cells were washed 3 times with PBS. 1 mL of trypsin (25 cm^2 cell culture flask) was added into the flask, and the flask was gently shaken to allow the trypsin to cover all the cell surfaces. Digestion was performed in an incubator at 37 °C. After 2 min of digestion, the flask was placed under a microscope for observation. […] The mixture was gently pipetted using a pipette to homogenize the cells and thus prepare a single-cell suspension, and the cells were counted. • (5) The cells were diluted to 3 × 10^5/mL and seeded into a 96-well plate at 100 µL/well, such that there were 3 × 10^4 cells per well in the 96-well plate. The cells were incubated in a 5% CO2 incubator at 37 °C and a saturated humidity for 24 h, followed by the addition of compounds. • 4.2 Dilution and addition of compounds: • (1) TNF-α was dissolved in PBS to obtain a 100 µg/mL stock solution and aliquoted; Z-VAD-FMK was dissolved in DMSO to obtain a 10 mM stock solution and aliquoted; BV6 was dissolved in DMSO to obtain a 10 mM stock solution and aliquoted; GSK2982772 was dissolved in DMSO to obtain a 10 mM stock solution and aliquoted. One aliquot of each stock solution was stored at -20 °C for immediate use, while the remaining aliquots were stored at - 80 °C and used within their shelf life. • (2) McCOY's 5A culture solution containing TNF-α, BV6, and Z-VAD-FMK was prepared. For the positive control group and the test compound groups, the McCOY's 5A culture solution was added at 90 µL/well, and 10 µL of the culture medium containing the test compound was also added, thus making the final concentrations of TNF-α, BV6, and Z-VAD-FMK be 20 ng/mL, 2 µM, and 20 µM, respectively. For the DMSO (5‰) control group, 90 µL of the McCOY's 5A complete culture solution was added, and then 10 µL of DMSO was added, thus making the final concentration 5‰. • (3) Each target compound was three-fold diluted with a culture medium to 8 concentration gradients, with each concentration set in duplicate (10 µL/well). The final concentrations of each target compound were 1000.00/333.33/111.11/37.04/12.35/4.12/1.37/0.46 nM. • (4) The 96-well plate cultured for 24 h was taken out from the incubator, and the culture medium in the 96-well plate was carefully aspirated and discarded. A positive control group, test compound groups, and a DMSO (5‰) control group were set, and 10 µL of the corresponding compound was added to each group. […]

SMILES	EC50 (U937 cells) [nM]	EC50 (HT-29 cells) [nM]
Cn1cc(C#Cc2cc3c4c(c2)CCN4C(=O)C(NC(=O)c2ncn(Cc4ccccc4F)n2)CC3)cn1 (stereo not shown) [III-7, 1-(2-fluorobenzyl)-N-(9-((1-methyl-1H-pyrazol-4-yl)ethynyl)-4-oxo-1,2,3,4,6,7-hexahydroazepino[3,2,1-hi]indol-3-yl)-1H-1,2,4-triazole-3-carboxamide]	< 5	10 to 100
Cn1cc(C#Cc2cc3c4c(c2)CCN4C(=O)C(NC(=O)c2ncn(Cc4ccc(F)cc4)n2)CC3)cn1 (stereo not shown) [III-8, 1-(4-fluorobenzyl)-N-(9-((1-methyl-1H-pyrazol-4-yl)ethynyl)-4-oxo-1,2,3,4,6,7-hexahydroazepino[3,2,1-hi]indol-3-yl)-1H-1,2,4-triazole-3-carboxamide]	5 to 10	10 to 100
Cn1cc(C#Cc2cc3c4c(c2)CCN4C(=O)C(NC(=O)c2ncn(Cc4ccc(F)cc4F)n2)CC3)cn1 (stereo not shown) [III-9, 1-(2,4-difluorobenzyl)-N-(9-((1-methyl-1H-pyrazol-4-yl)ethynyl)-4-oxo-1,2,3,4,6,7-hexahydroazepino[3,2,1-hi]indol-3-yl)-1H-1,2,4-triazole-3-carboxamide]	< 5	< 5
Cn1cc(C#Cc2cc3c4c(c2)CCN4C(=O)C(NC(=O)c2ncn(Cc4cc(F)cc(F)c4)n2)CC3)cn1 (stereo not shown) [III-11, 1-(3,5-difluorobenzyl)-N-(9-((1-methyl-1H-pyrazol-4-yl)ethynyl)-4-oxo-1,2,3,4,6,7-hexahydroazepino[3,2,1-hi]indol-3-yl)-1H-1,2,4-triazole-3-carboxamide]	< 5	< 5
Cc1ccccc1Cn1cnc(C(=O)NC2CCc3cc(C#Cc4cnn(C)c4)cc4c3N(CC4)C2=O)n1 (stereo not shown) [III-13, N-(9-((1-methyl-1H-pyrazol-4-yl)ethynyl)-4-oxo-1,2,3,4,6,7-hexahydroazepino[3,2,1-hi]indol-3-yl)-1-(2-methylbenzyl)-1H-1,2,4-triazole-3-carboxamide]	< 5	5 to 10
Cc1ccc(Cn2cnc(C(=O)NC3CCc4cc(C#Cc5cnn(C)c5)cc5c4N(CC5)C3=O)n2)cc1 (stereo not shown) [III-14, N-(9-((1-methyl-1H-pyrazol-4-yl)ethynyl)-4-oxo-1,2,3,4,6,7-hexahydroazepino[3,2,1-hi]indol-3-yl)-1-(4-methylbenzyl)-1H-1,2,4-triazole-3-carboxamide]	< 5	5 to 10
O=C(NC1CCc2cc(C#CC3CCNCC3)cc3c2N(CC3)C1=O)c1ncn(Cc2c(F)cccc2F)n1 (stereo not shown) [III-15, 1-(2,6-difluorobenzyl)-N-(4-oxo-9-(piperidin-4-ylethynyl)-1,2,3,4,6,7-hexahydroazepino[3,2,1-hi]indol-3-yl)-1H-1,2,4-triazole-3-carboxamide]	< 5	< 5
CC(C)(C)OC(=O)N1CCC(C#Cc2cc3c4c(c2)CCN4C(=O)C(NC(=O)c2ncn(Cc4c(F)cccc4F)n2)CC3)CC1 (stereo not shown) [III-16, tert-butyl 4-((3-(1-(2,6-difluorobenzyl)-1H-1,2,4-triazole-3-carboxamido)-4-oxo-1,2,3,4,6,7-hexahydroazepino[3,2,1-hi]indol-9-yl)ethynyl)piperidine-1-carboxylate]	< 5	10 to 100
O=C(NC1CCc2cc(C#Cc3cnn(C(F)F)c3)cc3c2N(CC3)C1=O)c1ncn(Cc2cc(F)cc(F)c2)n1 (stereo not shown) [III-18, 1-(3,5-difluorobenzyl)-N-(9-((1-(difluoromethyl)-1H-pyrazol-4-yl)ethynyl)-4-oxo-1,2,3,4,6,7-hexahydroazepino[3,2,1-hi]indol-3-yl)-1H-1,2,4-triazole-3-carboxamide]	10 to 100	5 to 10
O=C(NC1CCc2cc(C#Cc3cnn(C(F)F)c3)cc3c2N(CC3)C1=O)c1ncn(Cc2ccc(F)cc2F)n1 (stereo not shown) [III-20, 1-(2,4-difluorobenzyl)-N-(9-((1-(difluoromethyl)-1H-pyrazol-4-yl)ethynyl)-4-oxo-1,2,3,4,6,7-hexahydroazepino[3,2,1-hi]indol-3-yl)-1H-1,2,4-triazole-3-carboxamide]	5 to 10	5 to 10
Cc1ccccc1Cn1cnc(C(=O)NC2CCc3cc(C#Cc4cnn(C(F)F)c4)cc4c3N(CC4)C2=O)n1 (stereo not shown) [III-22, N-(9-((1-(difluoromethyl)-1H-pyrazol-4-yl)ethynyl)-4-oxo-1,2,3,4,6,7-hexahydroazepino[3,2,1-hi]indol-3-yl)-1-(2-methylbenzyl)-1H-1,2,4-triazole-3-carboxamide]	10 to 100	5 to 10
